From patent EP0558245A1, “Heterobicyclic compounds as antagogists of alpha-1 adrenergic and SHT1A receptors” (priority 1992, dated 1993) come the findings set out here.

Counter-ions that a name gives are not always drawn. Like-named read-outs stand apart in the source and are kept apart here.

One data set deals with α₁ receptors. In words: [3H]prazosin binding (α1 receptors), rat cerebral cortex membranes. To be noted: rat cerebral cortex crude membranes, [3H]prazosin 0.35 nM, 25°C 30 min; read-out: Receptor Binding IC50 (nM) α1.
For a further data set, the system named is diastolic blood pressure. In words: Effects on blood pressure in anaesthetized dogs. Type of data set: in vivo. Particulars: Canis lupus familiaris, iv; anaesthetized male beagle dogs, i.v. cumulative; active dose in lowering diastolic blood pressure by 25%; read-out: DBP ED25. The text has this:
(§1) In order to monitor systemic blood pressure (BP), a PE catheter was introduced into the aortic arch through the right common carotid artery.
(§2) A collateral of the left femoral vein was cannulated for infusion of anaesthetic, and the right femoral vein was cannulated for administration of drugs. For intrarterial (i.a.) injection of noradrenaline (NA), a PE catheter was introduced into the lower portion of abdominal aorta via the right external iliac artery. Through such procedure, NA was selectively distributed to the lower urinary tract. Via a midline laparotomy, the urinary bladder and proximal urethra were exposed. In order to prevent the filling of the bladder, the two ureters were cannulated and the urine led outside. In order to record the prostatic urethral pressure, a Mikro-tip catheter (6 F) was introduced into the bladder via the external urethral meatus, and withdrawn until the pressure transducer was positioned in the prostatic urethra. A ligature was secured between the neck of the bladder and urethra to isolate the response of the latter and avoid any interaction with the bladder. Another ligature was put around the Mikro-tip catheter at the external urethral meatus, to secure the catheter itself. After a stabilizing period following surgical procedure (30 min), in which arterial and prostatic urethral pressure were continuously monitored as basal values, i.a. administration of NA was made at intervals of 10 min. The dose of NA chosen was such to produce an increase of at least 100% in urethral pressure. The test compounds were administered i.v. in a cumulative manner with intervals of 15-20 min between administrations. I.a. injections of NA were repeated approximately 5 min. after every dosing of test compound. Dose response curves were constructed computing the percentage inhibition to the increase in urethral pressure (NA induced), and the percentage drop in blood pressure produced by the test compound.

For a further data set, the target named is T1, 5HT1A receptors (Rattus norvegicus, UniProt P19327).
T1 construct: Rat hippocampi were homogenized; from tissue; host or cells: rat hippocampus membranes
T1 sequence (P19327 1-422): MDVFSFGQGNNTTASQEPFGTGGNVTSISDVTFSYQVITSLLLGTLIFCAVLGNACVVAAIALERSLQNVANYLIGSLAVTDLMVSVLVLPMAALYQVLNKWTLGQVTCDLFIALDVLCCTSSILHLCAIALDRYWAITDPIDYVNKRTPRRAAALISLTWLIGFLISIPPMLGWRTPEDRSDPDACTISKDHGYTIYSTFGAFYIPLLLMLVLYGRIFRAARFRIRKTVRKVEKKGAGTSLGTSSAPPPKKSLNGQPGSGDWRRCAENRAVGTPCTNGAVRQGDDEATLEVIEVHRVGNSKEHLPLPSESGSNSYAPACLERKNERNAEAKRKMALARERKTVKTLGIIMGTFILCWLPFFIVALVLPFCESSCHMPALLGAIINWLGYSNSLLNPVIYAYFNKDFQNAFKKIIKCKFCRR
In words: [3H]8-OH-DPAT binding (5HT1A receptors), rat hippocampus membranes. To be noted: rat hippocampus crude membranes, [3H]8-OH-DPAT 1.0 nM, 25°C 30 min; read-out: Receptor Binding IC50 (nM) 5-HT1a.

Data set [1] has as its system noradrenaline induced contraction of urethra. In words: Effects on urethral contractions (noradrenaline-induced) in anaesthetized dogs. Type of data set: in vivo. Particulars: for ED50: Canis lupus familiaris, iv, anaesthetized male beagle dogs, i.v. cumulative, active dose in inhibiting by 50% the noradrenaline induced contraction of urethra, read-out: Urethra ED50; for DBP/Urethra ratio: ratio between the active doses (selectivity index), * = non-selective: substantial effect on both urethra and DBP.
Source text: as §1, §2

Data set [2] is described as follows: Acute toxicity in mice after intraperitoneal and oral administration. To be noted: mouse, in vivo, female albino Swiss mice, mortality recorded 7 days after administration. In a few lines: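 Female albino Swiss mice (20-30 g) dosed i.p. or orally at four log-scaled doses in 0.5% Methocel (10 ml/kg), 4 mice/dose. Mortality recorded at 7 days; LD₅₀ with fiducial limits by Weil's method.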

A further data set relates to rat bladder strips. In words: K+-induced contractions of rat bladder strips. To be noted: 80 mM KCl, drug added 30 minutes before. Type of data set: cell-based. As for the experimental part:
The whole bladder of the rat was removed and immediately placed in Krebs solution warmed at 37°C. […] Each strip was placed in a 10 ml organ bath and connected, under a constant load of 1 g, to an isometric strain gauge (DY-1 Basile, Comerio, Varese, Italy). […] After a 60 minutes equilibration period the strips were exposed to 80 mM KCl (final concentration). […] When the tonic contraction was stable, the strips were washed and 30 minutes later a new contraction was induced. After having recorded two or more reproducible responses, one concentration of the tested drugs was added to the bath and 30 minutes later a new contraction was induced. The experimental groups consisted of at least two preparations taken from different animals for each concentration of drug tested. The IC₅₀ values of inhibition of agonist-induced contractions were evaluated by linear regression analysis.

The mark [3] stands for this setting: ip, intraperitoneal, read-out: Acute Toxicity in Mice LD50 (mg/kg) i.p.
Setting [4] is: oral, read-out: Acute Toxicity in Mice LD50 (mg/kg) p.o.
Setting [5] is: phasic contraction, read-out: K+ Stimulation of Rat Bladder IC50 (μM) Contractions Phasic.
Where [6] appears, read: tonic contraction, read-out: K+ Stimulation of Rat Bladder IC50 (μM) Contractions Tonic.

What is called IC50 is the concentration that inhibits the measured activity by half. The term ED50 denotes the dose that gives a 50% effect, or the effect in half of the subjects. On to `COc1ccccc1N1CCN(CCOCc2cccc3c(=O)c(C)c(-c4ccccc4)oc23)CC1.Cl.Cl` [Example 27, 8-{2-[4-(2-methoxyphenyl)-1-piperazinyl]-ethoxymethyl}-3-methyl-4-oxo-2-phenyl-4H-1-benzopyran dihydrochloride], for which the concentration for half-maximal inhibition (IC50) on α₁ receptors was found to be 23 nM; at 5HT1A receptors, 124 nM; in the data set on rat bladder strips (setting [5]), 1 µM; in the data set on rat bladder strips (setting [6]), 0.8 µM. Moreover, the ED25 in the data set on diastolic blood pressure stood at 0.0098 mg/kg. Besides, the 50% effective dose (ED50) in data set [1] was 0.0032 mg/kg. Moreover, in data set [1], the DBP/Urethra ratio is listed as 3.1*. The LD50 at 168 h in data set [2] (setting [3]) is 399 mg/kg; in data set [2] (setting [4]), more than 3000 mg/kg.
With `COc1ccccc1N1CCN(CCCCCOc2cccc3c(=O)c(C)c(-c4ccccc4)oc23)CC1.Cl` [Example 42, 8-{5-[4-(2-methoxyphenyl)-1-piperazinyl]-pentyloxy}-3-methyl-4-oxo-2-phenyl-4H-1-benzopyran hydrochloride], the IC50 worked out at 111 nM on α₁ receptors, 39 nM on 5HT1A receptors, 10 µM in the data set on rat bladder strips (setting [5]) and 10 µM in the data set with rat bladder strips (setting [6]). For the same molecule, in the data set with diastolic blood pressure, the ED25 is 0.404 mg/kg. Also, the ED50 in data set [1] amounted to 0.031 mg/kg. In data set [1], the DBP/Urethra ratio was 13.0. The values for the LD50 at 168 h in data set [2] (setting [3]) and in data set [2] (setting [4]) were 459 mg/kg and 2160 mg/kg, respectively.
With `COc1ccccc1N1CCN(CCCNC(=O)c2cccc3c(=O)c(C)c(-c4ccccc4)oc23)CC1` [Example 11, 8-{3-[4-(2-methoxyphenyl)-1-piperazinyl]-propylcarbamoyl}-3-methyl-4-oxo-2-phenyl-4H-1-benzopyran dihydrochloride hemihydrate], the IC50 was found to be 29 nM on α₁ receptors, 9 nM on 5HT1A receptors, 2.9 µM in the data set with rat bladder strips (setting [5]) and 3 µM in the data set with rat bladder strips (setting [6]). Besides, the ED25 in the data set on diastolic blood pressure was 0.39 mg/kg. Further, in data set [1], the ED50 amounted to 0.0014 mg/kg. Further, the DBP/Urethra ratio in data set [1] was determined as 278.6. In addition, the LD50 at 168 h was found to be 247 mg/kg in data set [2] (setting [3]) and 297 mg/kg in data set [2] (setting [4]).
For `COc1ccccc1N1CCN(CC(O)c2cccc3c(=O)c(C)c(-c4ccccc4)oc23)CC1.Cl` (stereo not drawn) [Example 17, 8-{1-hydroxy-2-[4-(2-methoxyphenyl)-1-piperazinyl]-ethyl}-3-methyl-4-oxo-2-phenyl-4H-1-benzopyran hydrochloride], the IC50 at α₁ receptors is 59 nM; on 5HT1A receptors it was 910 nM; with rat bladder strips (setting [5]), 8.8 µM; with rat bladder strips (setting [6]) it was 3.8 µM. Moreover, in the data set with diastolic blood pressure, the ED25 is 0.0062 mg/kg. For the same molecule, in data set [1], the ED50 was 0.01 mg/kg. In addition, in data set [1], the DBP/Urethra ratio was 0.6*. Also, the LD50 at 168 h in data set [2] (setting [3]) is 299 mg/kg; in data set [2] (setting [4]), 608 mg/kg.
Regarding `COc1ccccc1N1CCN(CCCOc2cccc3c(=O)c(C)c(-c4ccccc4)oc23)CC1.Cl.Cl` [Example 40, 8-{3-[4-(2-methoxyphenyl)-1-piperazinyl]-propoxy}-3-methyl-4-oxo-2-phenyl-4H-1-benzopyran dihydrochloride], the IC50 was determined as 75 nM at α₁ receptors, 83 nM at 5HT1A receptors, 0.5 µM in the data set on rat bladder strips (setting [5]) and 0.9 µM in the data set with rat bladder strips (setting [6]). In addition, the ED25 in the data set with diastolic blood pressure is 0.152 mg/kg. The 50% effective dose (ED50) in data set [1] was 0.011 mg/kg. In addition, in data set [1], the DBP/Urethra ratio is recorded as 13.8. Also, the values for the LD50 at 168 h in data set [2] (setting [3]) and in data set [2] (setting [4]) were 140 mg/kg and 349 mg/kg, respectively.
For `COc1ccccc1N1CCN(CCNC(=O)c2cccc3c(=O)c(C)c(-c4ccccc4)oc23)CC1` [Example 13, 8-{2-[4-(2-methoxyphenyl)-1-piperazinyl]-ethylcarbamoyl}-3-methyl-4-oxo-2-phenyl-4H-1-benzopyran monohydrochloride hemihydrate], the IC50 on α₁ receptors turned out to be 68 nM; on 5HT1A receptors, 229 nM; in the data set with rat bladder strips (setting [5]), 10 µM; in the data set on rat bladder strips (setting [6]) it was 10 µM. The ED25 in the data set with diastolic blood pressure is 0.215 mg/kg. Further, the ED50 in data set [1] is 0.016 mg/kg. In data set [1], the DBP/Urethra ratio was found to be 13.4. In addition, the values for the LD50 at 168 h in data set [2] (setting [3]) and in data set [2] (setting [4]) were more than 1000 mg/kg and more than 3000 mg/kg, respectively.
